{
  "source": "patent US20170144972A1",
  "about": "“METHODS OF LOWERING PROPROTEIN CONVERTASE SUBTILISIN/KEXIN TYPE 9 (PCSK9)” (Catabasis Pharmaceuticals, Inc., priority 2012, published 2017)",
  "key": {"[1]": {"tested_on": "PCSK9", "test": "PCSK9 secretion assay in HepG2 cells (PCSK9 ELISA of supernatant)", "format": "cell-based", "details": "for lowering of PCSK9 (FIG. 1): 25 and 50 μM", "procedure": "HepG2 cells (from ATCC, Catalog no. HB-8065) were maintained in DMEM (Invitrogen) supplemented with 10% fetal bovine serum (Invitrogen). The day prior to the PCSK9 assay, cells are seeded in 96-well collagen coated plates at 25,000 cells/well.\nThe compounds of the invention were stored at −20° C. until used. The test article compound was dissolved in 100% ethanol to a 50 mM stock solution. This was then diluted in FBS to a final concentration of 1 mM. This solution was placed in a sonicating water bath for 30 minutes. Subsequent dilutions were then made in FBS supplemented with an equivalent volume of ethanol and mixed by vortexing.\nHepG2 cells were seeded onto a collagen coated 96-well plate (Becton Dickinson, Catalog no. 35-4407) the day prior to the assay, as described above. The next day, the cell medium was removed, washed once with […] serum free DMEM to remove any residual PCSK9, and replaced with […] of serum free DMEM. Ten microliters of each compound concentration prepared in FBS was then added. Each concentration of compound was tested in triplicate. The compound was incubated with the cells overnight for 16 hours. Following this incubation, 10 µL of AlamarBlue was added to each well and cells incubated for another 2 hours. The plates were then removed and AlamarBlue fluorescence was measured (excitation, 550 nm and […]) to assess cell viability. Cell culture supernatant was then diluted […] 1×RDSP Calibrator Diluent and PCSK9 ELISA was then performed with […] of this diluted sample, as per the manufacturer's instructions. The ELISA was measured on a Victor X5 multilabel plate reader (PerkinElmer) at an absorbance of 450 nm with background correction measured at 550 nm (The PCSK9 Elisa kits can be purchased from R&D System, Catalog no. DPC900).\nAlternatively, an IC50 could also be obtained when this type of assay was carried out using at least 6 different concentrations of the test compounds. Table 1 lists the IC50 values for the compounds tested in this assay."}, "[2]": {"tested_on": "Zucker fa/fa Rat model of Dyslipidemia", "test": "Plasma triglyceride level of the Zucker fa/fa rat model of dyslipidemia", "format": "in vivo", "details": "male Zucker rats, po qd, 10, 30, 100 and 300 mg/kg, blood sample day 4", "procedure": "Male Zucker rats (HsdHlr: Zucker-Lepr̂fa) between 8-10 weeks of age were purchased from Harlan and maintained on Purina Rodent Diet (5001) for the duration of the study. Animals were randomized and assigned to treatment arms based on body weight and plasma triglyceride (TG) levels (n=8). Inclusion criteria for the study include body weight >300 grams and fed TG levels in plasma >800 mg/dL. Dosing will be initiated on day 1 and continue through day 5. Dosing will be daily (qd) by oral gavage (po) for all treatment arms (Compound I-8 was administered orally at 4 different doses, 10, 30, 100 and 300 mg/kg; in addition, a combination of niacin/EPA in a ratio of 100/200 mg/kg was also employed). Body weights will be measured for all rats on days 1 through 5. On day 4, a blood sample (fed) will be collected from each rat, processed for plasma and stored at −80° C. Plasma triglyceride level was determined from commercial kits using standard protocols. […] Because compound I-8 was able to lower fed plasma triglyceride, it is useful to treat dyslipidemia as well as other diseases such as type I hyperlipoproteinemia and type 5 hyperlipoproteinemia."}, "[3]": {"tested_on": "APOE*3Leiden mice", "test": "Plasma cholesterol and triglycerides in ApoE3Leiden mice on Western type diet, 2 and 4 weeks of treatment", "format": "in vivo", "details": "female APOE*3Leiden mice, WTD, I-8 0.75% w/w in diet, atorvastatin 0.0015% w/w in diet", "procedure": "The study was conducted using female APOE*3Leiden mice (groups of each n=10) and one untreated reference control group on chow (n=5). To induce dyslipidemia, a high cholesterol Western type diet containing 1% cholesterol, 15% cacao butter, 40.5% sucrose and 1% corn oil (WTD) was fed to the mice for a total experimental period of 20 weeks (of which 4 weeks are a run-in period).\nThe dyslipidemic mice were grouped on the basis of plasma cholesterol at t=0 assayed in 4 h fasting blood. Mice with low cholesterol after the run-in period were excluded so that homogenous experimental groups were obtained. A group of reference mice (n=5) remained on a chow diet during the complete study period (normolipidemic reference mice).\nThis mix was then added to the master mix (containing the rest of the ingredients) and mixed thoroughly. The diet was frozen to −20° C. On the subsequent day, the diet was broken into small pellets (approx 5 g per piece) and freeze dried, and stored in vacuum sealed bags (approx 500 g) at −20° C. until use. The diets were refreshed daily and unused diet was discarded.\n1) Body weight at −4, 0, 2, 4 weeks 2) Food intake (g/day/mouse) at 0, 2, 4 weeks (per cage) 3) Plasma total cholesterol at −4, 0, 2, 4 weeks (individually) 4) Plasma triglycerides at −4, 0, 2, 4 weeks (individually) 5) Lipoprotein profiles at 0 (pool of all animals) and 4 weeks (cholesterol distribution over VLDL, LDL and HDL-sized particles, analysis on group level).\nEDTA plasma was collected in weeks −4, 0, 2 and 4 weeks."}, "[4]": {"tested_on": "ApoE*3 Leiden mice", "test": "Liver weight, plasma cholesterol and triglycerides of ApoE*3 Leiden mice, 16 weeks of treatment", "format": "in vivo", "details": "I-8 in WTD at 7.5 g/kg", "procedure": "The same experimental design used in example 6 was used. Two treatment groups were used (n=15). The control animals were kept on a Western type diet (WTD) consisting of 1% cholesterol, 15% cacao butter, 40.5% sucrose, and 1% corn oil. For the treatment group, compound I-8 was administered in the above WTD at a ratio of 7.5 g/kg. Animals were maintained on the WTD or treatment group for 16 weeks. At the conclusion of the study, plasma cholesterol and triglyceride levels were recorded, as well as the weight of the liver. There was a significant decrease in plasma cholesterol, triglyceride levels as well as liver weight in the treatment group. After 16 weeks of treatment, the cholesterol level of the treatment group was 420 mg/dL, compared with a level of 750 mg/dL for the control group; the triglyceride level was 110 mg/dL, compared with a level of 160 mg/dL for the control group."}},
  "data": [
    {"smiles": "CC/C=C\\C/C=C\\C/C=C\\C/C=C\\C/C=C\\CCCC(=O)NCCNC(=O)c1cccnc1", "note": "[Compound I-8, N-(2-(5Z,8Z,11Z,14Z,17Z)-eicosa-5,8,11,14,17-pentaenamidoethyl)nicotinamide]", "values": [
      {"measurement": "PCSK9 levels in HepG2 cells incubated with atorvastatin (FIG. 2)", "setting": "[1]; HepG2 cells incubated with 10 μM of atorvastatin along with test article", "result": "decrease PCSK9 levels in a dose response manner to well below the atorvastatin level induced levels"},
      {"measurement": "lowering of PCSK9 (FIG. 1)", "setting": "[1]; HepG2 cells", "result": "significant lowering of PCSK9"},
      {"measurement": "fed plasma triglyceride level (FIG. 3)", "setting": "[2]", "result": "dose dependent decrease"},
      {"measurement": "plasma cholesterol at t=2 weeks (FIG. 4)", "setting": "[3]; 2 weeks", "result": "statistically significant reduction"},
      {"measurement": "plasma cholesterol after 4 weeks of treatment (FIG. 5)", "setting": "[3]; 4 weeks", "result": "Comparable level of cholesterol reduction"},
      {"measurement": "plasma triglyceride levels after 4 weeks of treatment (FIG. 6)", "setting": "[3]; 4 weeks", "result": "significant reduction"},
      {"measurement": "liver weight (FIG. 7)", "setting": "[4]", "result": "statistically significant drop"}
    ]},
    {"smiles": "CC(C)c1c(C(=O)Nc2ccccc2)c(-c2ccccc2)c(-c2ccc(F)cc2)n1CC[C@@H](O)C[C@@H](O)CC(=O)O", "note": "[atorvastatin, reference compound]", "values": [
      {"measurement": "PCSK9 secretion (FIG. 2)", "setting": "[1]; HepG2 cells, 10 μM atorvastatin alone", "result": "increases PCSK9 secretion"}
    ]},
    {"smiles": "CC/C=C\\C/C=C\\C/C=C\\C/C=C\\C/C=C\\CCCC(=O)NCCNC(C)=O", "note": "[Compound A, (5Z,8Z,11Z,14Z,17Z)—N-(2-acetamidoethyl)icosa-5,8,11,14,17-pentaenamide, reference compound]", "values": [
      {"measurement": "activity toward PCSK9 (FIG. 1)", "setting": "[1]; HepG2 cells, highest tested concentration of 50 μM", "result": "essentially no activity"}
    ]},
    {"smiles": "CC/C=C\\C/C=C\\C/C=C\\C/C=C\\C/C=C\\CCCC(=O)NCCNC(=O)c1ccccc1", "note": "[II-1, N-(2-((5Z,8Z,11Z,14Z,17Z)-icosa-5,8,11,14,17-pentaenamido)ethyl)benzamide]", "values": [
      {"measurement": "lowering of PCSK9 (FIG. 1)", "setting": "[1]; HepG2 cells", "result": "significant lowering of PCSK9"}
    ]}
  ]
}
